Measurements: patent US20160257651A1, “NOVEL COMPOUND WITH ANTIBACTERIAL ACTIVITY” (priority 2013, published 2016)
≈ marks a conversion by molar mass, not a printed value. Where two headings read alike, the source gives them in different places.

How the values were obtained:
E. faecalis 36-15722 = assay: MIC against Enterococcus bacteria; type: cell-based, Enterococcus faecalis; settings: Enterococcus faecalis, 3615722
Experimental: Antibacterial activities of the compound J-131CP against Enterococcus bacteria (Enterococcus faecium and Enterococcus faecalis) were examined by the following methods.
The compound J-131CP and quinolones were prepared in the same manner as that of Test Example 1-1.
Cell suspensions were prepared in the same manner as that of Test Example 1-1 described in the section of measurement of MIC in Test Example 1-1, except that the Enterococcus bacterium strains mentioned in Table 8 were used instead of Staphylococcus aureus, and MICs of the compound J-131CP and quinolones as control were determined for the strains in the same manner as that of Test Example 1-1 described in the section of measurement of MIC in Test Example 1-1. In Table 8, the amino acid substitution mutations in QRDR of the strains are underlined.

S. pneumoniae BCLSP37 = assay: MIC against pneumococcus, CAMHB with 5 mass % LHB; type: cell-based, Streptococcus pneumoniae; settings: Streptococcus pneumoniae, BCLSP37, S. pneumoniae BCLSP37, PSSP, quinolone-resistant; ParC 79Phe, GyrA 85Lys; read-out: MIC
Experimental: (§1) The S. pneumoniae strains used for this test belong to any one of the categories of penicillin-susceptible pneumococcus (penicillin-susceptible Streptococcus pneumoniae, PSSP), penicillin-intermediate pneumococcus (penicillin-intermediate Streptococcus pneumoniae, PISP), and penicillin-resistant pneumococcus (penicillin-resistant Streptococcus pneumoniae, PRSP).
(§2) The lysed horse blood was prepared by adding sterilized water to horse sterile defibered blood (produced by Nippon Bio-Supp. Center) at a ratio of 1:1, subjecting the mixture to freezing and thawing 5 times, then centrifuging the mixture twice at 10,000 rpm for 20 minutes, and filtering the supernatant through a filter.
(§3) The S. pneumoniae strains mentioned in Table 11 were each cultured overnight at 37° C. on a blood agar medium as stationary culture. The blood agar medium was prepared by adding 5 mass % ovine sterile defibered blood (produced by Nippon Bio-Supp. Center) to a heart infusion agar medium (produced by EIKEN CHEMICAL). Each S. pneumoniae strain cultured overnight at 37° C. as stationary culture was further subcultured overnight at 37° C. on fresh blood agar medium as stationary culture. After completion of the culture, cells of each pneumococcus strain were collected with a swab, and suspended in physiological saline, and the suspension was adjusted with physiological saline to show absorbance of 0.08 to 0.13 at 625 nm as measured with an absorbance meter (produced by Amersham), and further diluted 200 times with CAMHB containing 5 mass % LHB.
(§4) In Table 11, the amino acid substitution mutations in QRDR of the strains are underlined.

S. pneumoniae KBSP11 = assay: MIC against pneumococcus, CAMHB with 5 mass % LHB; type: cell-based, Streptococcus pneumoniae; settings: Streptococcus pneumoniae
Experimental: as §1, §2, §3, §4

E. faecalis NCTC12203 = assay: MIC against Enterococcus bacteria; type: cell-based; settings: NCTC 12203 / VRE
Method in brief: (§5)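 MICs determined with quinolones as control agents, using the same cell-suspension preparation and MIC procedure as applied to Staphylococcus aureus. Some strains carry amino-acid substitutions in the quinolone-resistance-determining region (QRDR).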

E. faecium NCTC12204 = assay: MIC against Enterococcus bacteria; type: cell-based; settings: NCTC 12204 / VRE
Method in brief: as §5

S. pneumoniae BCLSP16 = assay: MIC against pneumococcus, CAMHB with 5 mass % LHB; type: cell-based; settings: Streptococcus pneumoniae
Text: as §1, with “Antibacterial activity of the compound J-131CP against pneumococcus (Streptococcus pneumoniae) was examined by the following method. The” for “The”
as §2, with “The compound J-131CP and quinolones were prepared in the same manner as that of Test Example 1-1, except that CAMHB containing 5 mass % of lysed horse blood (LHB) was used for the dilution instead of CAMHB. The” for “The”
as §3
(§6) CAMHB containing the compound J-131CP at each concentration or each quinolone at each concentration, and 5 mass % LHB was added to each well of a 96-well plate in a volume of 50 μL/well, each cell suspension diluted 200 times was added to the well in a volume of 50 μL/well, and stationary culture was carried out overnight at 37° C.
(§7) After completion of the culture, whether the bacterium proliferated or not was determined on the basis of visually observed turbidity of the culture in the well, and MIC values (mg/L) of the compound J-131CP and the quinolones for the strains were determined. In Table 11, the amino acid substitution mutations in QRDR of the strains are underlined.

S. pneumoniae JHSP11 = assay: MIC against pneumococcus, CAMHB with 5 mass % LHB; type: cell-based; settings: Streptococcus pneumoniae
Text: as §1, with “Antibacterial activity of the compound J-131CP against pneumococcus (Streptococcus pneumoniae) was examined by the following method. The” for “The”
as §2, with “The compound J-131CP and quinolones were prepared in the same manner as that of Test Example 1-1, except that CAMHB containing 5 mass % of lysed horse blood (LHB) was used for the dilution instead of CAMHB. The” for “The”
as §3, §6, §7

S. pneumoniae KBSP04 = assay: MIC against pneumococcus, CAMHB with 5 mass % LHB; type: cell-based; settings: Streptococcus pneumoniae
Text: as §1, with “Antibacterial activity of the compound J-131CP against pneumococcus (Streptococcus pneumoniae) was examined by the following method. The” for “The”
as §2, with “The compound J-131CP and quinolones were prepared in the same manner as that of Test Example 1-1, except that CAMHB containing 5 mass % of lysed horse blood (LHB) was used for the dilution instead of CAMHB. The” for “The”
as §3, §6, §7

E. faecium RPR10 = assay: MIC against Enterococcus bacteria; type: cell-based
Method in brief: as §5

[1] = S. pneumoniae KBSP11, PRSP, quinolone-susceptible, read-out: MIC
[2] = E. faecalis NCTC12203, VRE, read-out: MIC
[3] = E. faecium NCTC12204, VRE, read-out: MIC
[4] = S. pneumoniae KBSP04, PISP, read-out: MIC
[5] = E. faecalis 36-15722, quinolone-resistant, ParC 80Ile, GyrA 84Ile, read-out: MIC
[6] = E. faecium RPR10, read-out: MIC

Compound | MIC (E. faecalis 36-15722) | MIC (S. pneumoniae BCLSP37) | MIC (S. pneumoniae KBSP11; [1]) | MIC (E. faecalis NCTC12203; [2]) | MIC (E. faecium NCTC12204; [3]) | MIC (S. pneumoniae BCLSP16; S. pneumoniae BCLSP16, PSSP, ParC 79Tyr, GyrA 81Phe, read-out: MIC) | MIC (S. pneumoniae JHSP11) | MIC (S. pneumoniae KBSP04; [4]) | MIC (E. faecalis 36-15722; [5]) | MIC (S. pneumoniae KBSP11; PRSP) | MIC (E. faecium RPR10; RPR10) | MIC (E. faecalis NCTC12203) | MIC (E. faecium NCTC12204) | MIC (S. pneumoniae BCLSP16; BCLSP16) | MIC (S. pneumoniae KBSP04; KBSP04) | MIC (E. faecium RPR10; [6])
O=C(O)c1cn(C2CC2)c2cc(N3CCNCC3)c(F)cc2c1=O [CIP, ciprofloxacin] | 64 µg/mL (≈ 193 µM) | > 32 µg/mL | 0.5 µg/mL (≈ 1.51 µM) | 4 µg/mL (≈ 12.1 µM) | 4 µg/mL (≈ 12.1 µM) | > 32 µg/mL | > 32 µg/mL | 0.5 µg/mL (≈ 1.51 µM) |  |  |  |  |  |  |  | 
O=c1cc(CO)c2cc(F)c(-c3ccc(O)cc3)cc2n1C1CC1 [J-131CP, 1-cyclopropyl-6-fluoro-4-(hydroxymethyl)-7-(4-hydroxyphenyl)-1,2-dihydroquinolin-2-one] |  | 4 µg/mL (≈ 12.3 µM) |  |  |  |  | 4 µg/mL (≈ 12.3 µM) |  | 1 µg/mL (≈ 3.07 µM) | 2 µg/mL (≈ 6.15 µM) | 4 µg/mL (≈ 12.3 µM) | 2 µg/mL (≈ 6.15 µM) | 8 µg/mL (≈ 24.6 µM) | 4 µg/mL (≈ 12.3 µM) | 4 µg/mL (≈ 12.3 µM) | 
C[C@H]1COc2c(N3CCN(C)CC3)c(F)cc3c(=O)c(C(=O)O)cn1c23 [LVX, levofloxacin] |  | 32 µg/mL (≈ 88.6 µM) | 1 µg/mL (≈ 2.77 µM) | 2 µg/mL (≈ 5.53 µM) | 2 µg/mL (≈ 5.53 µM) |  | 64 µg/mL (≈ 177 µM) | 2 µg/mL (≈ 5.53 µM) | 36 µg/mL (≈ 99.6 µM) |  |  |  |  | 32 µg/mL (≈ 88.6 µM) |  | 1 µg/mL (≈ 2.77 µM)
CCn1cc(C(=O)O)c(=O)c2cc(F)c(N3CCNCC3)cc21 [NOR, norfloxacin] |  | 64 µg/mL (≈ 200 µM) | 4 µg/mL (≈ 12.5 µM) | 4 µg/mL (≈ 12.5 µM) | 4 µg/mL (≈ 12.5 µM) |  | 128 µg/mL (≈ 401 µM) | 4 µg/mL (≈ 12.5 µM) | 128 µg/mL (≈ 401 µM) |  |  |  |  | > 128 µg/mL |  | 2 µg/mL (≈ 6.26 µM)
CC1COc2c(N3CCN(C)CC3)c(F)cc3c(=O)c(C(=O)O)cn1c23 (centres unmarked) [OFX, ofloxacin] |  | 32 µg/mL (≈ 88.6 µM) | 0.5 µg/mL (≈ 1.38 µM) | 4 µg/mL (≈ 11.1 µM) | 4 µg/mL (≈ 11.1 µM) |  | 8 µg/mL (≈ 22.1 µM) | 0.5 µg/mL (≈ 1.38 µM) | 64 µg/mL (≈ 177 µM) |  |  |  |  | 16 µg/mL (≈ 44.3 µM) |  | 2 µg/mL (≈ 5.53 µM)
C[C@@H]1CN(c2c(F)c(N)c3c(=O)c(C(=O)O)cn(C4CC4)c3c2F)C[C@H](C)N1 [SPX, sparfloxacin] |  | > 32 µg/mL | 0.25 µg/mL (≈ 0.637 µM) | 1 µg/mL (≈ 2.55 µM) | 1 µg/mL (≈ 2.55 µM) |  | > 32 µg/mL |  | 64 µg/mL (≈ 163 µM) |  |  |  |  | 16 µg/mL (≈ 40.8 µM) | 0.125 µg/mL (≈ 0.319 µM) | 0.13 µg/mL (≈ 0.331 µM)
NC1CCN(c2nc3c(cc2F)c(=O)c(C(=O)O)cn3-c2ccc(F)cc2F)C1 (centres unmarked) [TSX, tosufloxacin] |  | 16 µg/mL (≈ 39.6 µM) |  | 4 µg/mL (≈ 9.89 µM) | 4 µg/mL (≈ 9.89 µM) |  | 8 µg/mL (≈ 19.8 µM) |  | > 128 µg/mL | 0.125 µg/mL (≈ 0.309 µM) |  |  |  | 8 µg/mL (≈ 19.8 µM) | 0.125 µg/mL (≈ 0.309 µM) | 4 µg/mL (≈ 9.89 µM)
